Assay: Stability of NG-497 exposed to HepG2 cells
Assay type: in vitro ADME
Settings: human, cells treated 1 h with 40 μM NG-497, inhibitor removed, DMEM 10% FCS, read-out: half-life (T1/2) when exposed to HepG2 cells
Description: Figure 2 Development and characterization of the human ATGL inhibitor NG-497. (a) Structure and IC50 values of human ATGL inhibitors. (b) Dose-dependent inhibition of human ATGL by respective inhibitors. (c) ATGL activity was determined at the indicated substrate concentrations in the absence and presence of NG-497 (0.5 μM). Ki was determined by nonlinear regression analysis using GraphPad Prism. Lineweaver–Burk analysis of ATGL inhibition is shown in the inset. (d) Toxicity of NG-497 in HepG2 cells was determined after 24 h incubation at indicated concentrations. Cisplatin and DMSO were used as positive and negative controls, respectively. Cytotoxicity was determined using the Roche LDH Kit and calculated as relative LDH release compared to fully lysed cells. (e) Stability of NG-497 was analyzed via ultrahigh-performance liquid chromatography–mass spectrometry (UHPLC-MS) after incubation in human serum for 0 or 3 h at 37 °C. Atglistatin and a chemically related unstable compound were used as controls. […] NG-497 concentrations/well were determined at the indicated time points using UHPLC-MS. […] Statistical significance was determined via t test (*p < 0.05; **p < 0.01; ***p < 0.001) or ANOVA followed by Bonferroni post hoc test (^###p < 0.001). […] The detected 297 lipid species of both groups were analyzed with supervised multivariate analysis OPLS-DA and are shown as a loading plot. […]

For `CCOc1ccc(-c2cc(OC)cc(C(=O)OC(C)C)n2)cc1` [NG-497], which half-life at 40 µM is on record?
The half-life at 40 µM was 46 min.
